This assay concerns the target T1, ABL1 T315I (Homo sapiens, UniProt P00519, T315I).
T1 construct: purchased Thermo Fisher Scientific (Life Technologies) SelectScreen
Nature of the assay: SelectScreen Z'LYTE. In kind it is biochemical. An outline of the steps: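 NU5455 was profiled across the SelectScreen Broad panel of kinase activity and binding assays. Z'LYTE reactions such as CSF1R ran at apparent Km ATP, while the Adapta CAMK1 assay used ATP listed as 10. Values are given as percent.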

In the case of `CN(C(=O)CN1CCOCC1)c1ccc2sc3c(-c4cccc5c(=O)cc(N6CC7CCC(C6)O7)oc45)cccc3c2c1` [NU5455], the inhibition – broadly, the relative decrease from the control value, in per cent – at 1 µM is -3%.
